Results as given in patent publication US9302999B2, “Substituted triazoles as herbicides” (E. I. DU PONT DE NEMOURS AND COMPANY, priority 2012, dated 2016).

Columns and labels:
Format in all cases: in vivo
[1] = system: soybean (Glycine max); test: Test F pre-/postemergence: soybean
Source text: (§1) Seeds of plant species selected from corn (Zea mays), soybean (Glycine max), velvetleaf (Abutilon theophrasti), lambsquarters (Chenopodium album), poinsettia, wild (wild poinsettia, Euphorbia heterophylla), pigweed, palmer (palmer pigweed, Amaranthus palmeri), waterhemp (common waterhemp, Amaranthus rudis), surinam grass (Brachiaria decumbens), crabgrass, Brazil (Brazilian crabgrass, Digitaria horizontalis), panicum, fall (fall panicum Panicum dichotomiflorum), crabgrass, large (large crabgrass, Digitaria sanguinalis), foxtail, giant (giant foxtail, Setaria faberii), foxtail, green (green foxtail Setaria viridis), goosegrass (Eleusine indica), ragweed (common ragweed, Ambrosia elatior), barnyardgrass (Echinochloa crus-galli), sandbur (southern sandbur, Cenchrus echinatus), arrowleaf sida (Sida rhombifolia), ryegrass, Italian (Italian ryegrass, Lolium multiflorum), dayflower, VA (Virginia (VA) dayflower, Commelina virginica), field bindweed (Convolvulus arvensis), cocklebur (common cocklebur, Xanthium strumarium), morningglory (Ipomoea coccinea), nightshade (eastern black nightshade, Solanum ptycanthum), kochia (Kochia scoparia), nutsedge, yellow (yellow nutsedge, Cyperus esculentus), johnsongrass (Sorghum halepense), smartweed (ladysthumb smartweed, Polygonum persicaria), and beggarticks (hairy beggarticks, Bidens pilosa), were planted into a silt loam soil and treated preemergence with test chemicals formulated in a non-phytotoxic solvent mixture which included a surfactant. At the same time, plants selected from these crop and weed species and also pigweed (Amaranthus retroflexus), waterhemp_RES1 (ALS/Triazine resistant common waterhemp, Amaranthus rudis) and waterhemp_RES2 (ALS/HPPD resistant common waterhemp, Amaranthus rudis) were planted in pots containing a planting medium comprising spaghnum peat moss, vermiculite, wetting agent and starter nutrients treated with postemergence applications of some of the test chemicals formulated in the same manner. Plants ranged in height from 2 to 18 cm for postemergence treatments (1- to 4-leaf stage).
(§2) Treated plants and controls were maintained in a greenhouse for 14 to 21 days, after which time all species were compared to controls and visually evaluated. Plant response ratings, summarized in Table E, are based on a scale of 0 to 100 where 0 is no effect and 100 is complete control. A dash (-) response means no test result.

[2] = system: ragweed (common ragweed, Ambrosia elatior); test: Test F pre-/postemergence: ragweed; conditions: Preemergence
Source text: as §1, §2

[3] = system: Oilseed Rape; test: Test C postemergence: oilseed rape
Source text: At the same time, plants selected from these crop and weed species and also barley (winter barley, Hordeum vulgare), canarygrass (Phalaris minor), chickweed (common chickweed, Stellaria media) windgrass (Apera spica-venti) and deadnettle (henbit deadnettle, Lamium amplexicaule) were planted in pots containing Redi-Earth® planting medium (Scotts Company, 14111 Scottslawn Road, Marysville, Ohio 43041) comprising spaghnum peat moss, vermiculite, wetting agent and starter nutrients and treated with postemergence applications of test chemicals formulated in the same manner. Plants ranged in height from 2 to 18 cm (1- to 4-leaf stage) for postemergence treatments.
as §2, with “13” for “14”, “15” for “21”, “C,” for “E,”

[4] = system: beggarticks (hairy beggarticks, Bidens pilosa); test: Test F pre-/postemergence: beggarticks
In short: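 Seeds were sown in silt loam soil and sprayed preemergence with test chemical in a non-phytotoxic solvent mixture containing surfactant; postemergence treatments went onto plants 2 to 18 cm tall (1- to 4-leaf stage) grown in peat moss/vermiculite medium. After 14 to 21 days in a greenhouse, injury was rated visually against controls, 0 (no effect) to 100 (complete control).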

[5] = system: panicum, fall (fall panicum Panicum dichotomiflorum); test: Test F pre-/postemergence: panicum, fall
Source text: as §1, §2

[6] = Postemergence, 4 g ai/ha, scale 0 to 100
[7] = Postemergence, 8 g ai/ha, scale 0 to 100
[8] = Postemergence, 16 g ai/ha, scale 0 to 100
[9] = Postemergence, 31 g ai/ha, scale 0 to 100
[10] = Postemergence, 62 g ai/ha, scale 0 to 100
[11] = Preemergence, 4 g ai/ha, scale 0 to 100, 0 no effect, 100 complete control
[12] = Preemergence, 8 g ai/ha, scale 0 to 100, 0 no effect, 100 complete control
[13] = Preemergence, 16 g ai/ha, scale 0 to 100 (0 no effect, 100 complete control)
[14] = Preemergence, 31 g ai/ha, scale 0 to 100 (0 no effect, 100 complete control)
[15] = 31 g ai/ha, scale 0 to 100 (0 no effect, 100 complete control)

With Cc1nn(-c2ccc(C(F)(F)F)c(F)c2)nc1Cc1ccnc(C(F)(F)F)c1 [Compound 162] as the molecule, how does the “Plant response rating, Soybean” value [1, 6] read?
Its value is 20.

What about the “Plant response rating, Soybean” value [1, 7] of the same molecule?
The value was 30.

What about the “Plant response rating, Soybean” value [1, 8] of the same molecule?
The value was 30.

What about the “Plant response rating, Soybean” value [1, 9] of the same molecule?
The value was 45.

What about the “Plant response rating, Soybean” value [1, 10] of the same molecule?
The value was 55.

And the “Plant response rating, Soybean” value [1, 11]?
The value was 0.

And the “Plant response rating, Soybean” value [1, 12]?
The value was 0.

And the “Plant response rating, Soybean” value [1, 13]?
The value was 0.

And the “Plant response rating, Soybean” value [1, 14]?
The value was 25.

And the “Plant response rating, Ragweed” value ([2]; 4 g ai/ha, scale 0 to 100, 0 no effect, 100 complete control)?
The value was 0.

What about the “Plant response rating, Ragweed” value ([2]; 8 g ai/ha, scale 0 to 100, 0 no effect, 100 complete control) of the same molecule?
Its value is 0.

What about the “Plant response rating, Ragweed” value ([2]; 16 g ai/ha, scale 0 to 100 (0 no effect, 100 complete control)) of the same molecule?
The value was 0.

What about the “Plant response rating, Ragweed” value [2, 15] of the same molecule?
Its value is 70.

What about the “Plant response rating, Oilseed Rape” value [3, 15] of the same molecule?
The value was 90.

And the “Plant response rating, Oilseed Rape” value ([3]; 62 g ai/ha, scale 0 to 100 (0 no effect, 100 complete control))?
Its value is 90.

And the “Plant response rating, Oilseed Rape” value ([3]; 250 g ai/ha, scale 0 to 100)?
Its value is 95.

And the “Plant response rating, Beggarticks” value [4, 6]?
Its value is 15.

And the “Plant response rating, Beggarticks” value [4, 7]?
Its value is 20.

And the “Plant response rating, Beggarticks” value [4, 8]?
Its value is 25.

And the “Plant response rating, Beggarticks” value [4, 9]?
Its value is 25.

And the “Plant response rating, Beggarticks” value [4, 10]?
The value was 30.

And the “Plant response rating, Beggarticks” value [4, 11]?
Its value is 0.

What about the “Plant response rating, Beggarticks” value [4, 12] of the same molecule?
The value was 0.

What about the “Plant response rating, Beggarticks” value [4, 13] of the same molecule?
Its value is 0.

What about the “Plant response rating, Beggarticks” value [4, 14] of the same molecule?
The value was 0.

What about the “Plant response rating, Beggarticks” value ([4]; Preemergence, 62 g ai/ha, scale 0 to 100) of the same molecule?
Its value is 0.

And the “Plant response rating, Panicum, Fall” value [5, 6]?
The value was 15.

And the “Plant response rating, Panicum, Fall” value [5, 7]?
Its value is 20.

What about the “Plant response rating, Panicum, Fall” value [5, 8] of the same molecule?
The value was 20.

And the “Plant response rating, Panicum, Fall” value [5, 9]?
Its value is 25.

What about the “Plant response rating, Panicum, Fall” value [5, 10] of the same molecule?
Its value is 30.

What about the “Plant response rating, Panicum, Fall” value [5, 11] of the same molecule?
Its value is 0.

And the “Plant response rating, Panicum, Fall” value [5, 12]?
Its value is 0.

What about the “Plant response rating, Panicum, Fall” value [5, 13] of the same molecule?
The value was 100.

And the “Plant response rating, Panicum, Fall” value [5, 14]?
Its value is 100.
